Values quoted from earlier work, collected in PMC12498288 (Frontiers in Immunology, 2025).

Tested on: SARS-CoV-2
Parameters: method as in PMID 38319178
Conditions: hospitalized COVID-19 patients with a similar CSS as in RESPIRE; cited from earlier work

CC(C)C(=O)OC[C@H]1O[C@@H](n2ccc(NO)nc2=O)[C@H](O)[C@@H]1O [molnupiravir]
viral load reduction: no viral load reduction was observed
